# Where two headings read alike, the source gives them in different places.
# Experiments:
# PLK1 kinase = biological target: T1, PLK1 kinase (Homo sapiens, UniProt P53350); assay: Inhibitory activity on PLK1 kinase; format: biochemical; details: for Imax: maximum effect caused by the compound at the test concentration
# T1 construct: purchased Carnabio (Carna Biosciences) 05-157
# Procedure: Detection solution PerkinElmer #TRF0218-M
# Detection instrument PerkinElemer EnVision
# a. Using the Echo machine, the compounds to be tested were diluted by 1:3 on a 384-well plate, and the highest concentration was 1 μM, with a total of 10 concentration points, and each concentration was tested in duplicate wells.
# b. 5 μL/well of PLK1 kinase and peptide substrate mixture were added to the assay plate (containing controls).
# d. The reaction was initiated by adding 5 μL/well of ATP solution;
# e. The assay plate was centrifuged at 1000 rpm for about 15 seconds, a film was used to seal the assay plate which was incubated at 23° C. for a period of time;
# f. A detection solution was added to all wells of the assay plate;
# g. The assay plate was centrifuged at 1000 rpm for approximately 15 seconds, a film was used to seal the assay plate which was incubated at 23° C. for 60 min.
# h. The assay plate was read on EnVision. The test results were analyzed using XLFIT5 software.
# HCT116 cells = assay: Inhibitory activity on HCT116 cell proliferation (ATPlite); format: cell-based; details: Homo sapiens
# Procedure: Cell culture medium: RPMI1640+10% FBS (GBICO)
# Cell culture plate: 96-well plate (Shanghai Jingan Biotechnology Co., Ltd.)
# Detection kit: ATPlite 1step Luminescence (PerkinElmer)
# Detection instrument: BioTek multifunctional microplate reader
# 2. Test method: HCT116 cells in the logarithmic growth phase were seeded into a white-wall clear-bottom 96-well plate at a density of 720 cells per well, and cultured overnight in a 37° C., 5% CO2 incubator. […] After adding the drug, culturing was continued for 72 h in a 37° C., 5% CO2 incubator.
# GraphPad Prism 7.0 was used to process the data, the cell inhibition rate curve was obtained and IC50 was calculated.
# [1] = Permeability and efflux transporter substrate evaluation in Caco-2 cells; format: in vitro ADME; design: Papp A→B at 120 min / Papp B→A at 120 min / efflux ratio at 120 min / Papp at 120 min: dose or concentration left out as unconfirmed; details: human; for efflux ratio at 120 min / Papp at 120 min: Caco-2, pH 7.4; for Papp at 120 min: read-out: Classification Permeability; for Papp A→B at 120 min / Papp B→A at 120 min: pH 7.4, pH 7.40; for Papp A→B at 120 min: Caco-2, apical to basolateral; for Papp B→A at 120 min: Caco-2, basolateral to apical
# Procedure: (§1) The cells were cultured in a carbon dioxide incubator for 21-28 days before being used for transport experiments. During this period, the culture medium was changed every four to five days.
# (§2) This project uses Hank's balanced salt buffer (pH 7.40±0.05) containing 10 mM HEPES as the transport buffer. The culture medium was removed from the culture plate and the cells were washed twice with preheated transport buffer (approximately 75 μL and 40 mL of transport buffer for each apical well and basolateral receiver plate respectively). The donor solution and receiver solution were added to the corresponding cell plate wells (75 and 250 μL for each apical and basolateral well respectively), and the bidirectional transport experiment was started (apical to basolateral (A-B) and basolateral to apical (B-A)). The test concentration of the test substance was […], and two replicate wells were made for each dosing concentration. The test concentration of Digoxin was […], with dosing bidirectionally; the test concentrations of nadolol and metoprolol were both […], and they were dosed in one direction (A-B direction), and two replicate wells were made for each of the three control compounds.
# (§3) The initial donor solution is the TO sample. After adding the sample, it was mixed with the transport buffer and stop solution in a certain proportion.
# (§4) All samples were vortexed, and then centrifuged at 3220×g for 20 min at 20° C. A proper volume of supernatant was transferred to a sample assay plate, and the sample was stored at 2-8° C. if it was not analyzed immediately after the plate was sealed, and LC MS/MS method was used for analysis.
# (§5) The Lucifer Yellow Rejection Assay was used to test the integrity of the Caco-2 cell layer.
# (§6) The following formulas were used to calculate the apparent permeability coefficient (Papp, cm/s), efflux ratio (ER), and solution recovery (%) (% Solution Recovery).
# (§7) [formula] [formula] [formula] • VR is the volume of the receiver side solution (side A is 0.075 mL, side B is 0.25 mL); Area is the relative surface area of the cell monolayer (0.0804 cm^2); Time is the incubation time (7200 s); C0 is the initial concentration (nM) of the test substance at the donor side or the peak area ratio of the control compound; VD is the volume of the donor side (side A is 0.075 mL, side B is 0.25 mL); CD and CR are the final concentration (nM) of the test substance at the donor side and the receiver side respectively or the peak area ratio of the control compound; • Lucifer yellow transmittance rate (% Lucifer Yellow) is calculated using the following formula:
# (§8) [formula] • RFUApical and RFUBasolateral are the relative fluorescence intensity of lucifer yellow at the apical and basolateral sides respectively. VApical and VBasolateral are the sample loading volumes at the apical and basolateral sides respectively (0.075 and 0.25 mL respectively).
# Caco-2 cells = assay: as above; format: in vitro ADME; design: Papp A→B at 120 min / Papp B→A at 120 min / efflux ratio at 120 min / Papp at 120 min: dose or concentration left out as unconfirmed; details: Caco-2
# Procedure: as §1, §2, §3, §4, §5, §6, §7, §8
# [2] = Metabolic stability in mouse liver microsomes; format: in vitro ADME; details: for CLint scaled at 1 µM / half-life at 1 µM / microsomal CLint at 1 µM: mouse; for CLint scaled at 1 µM / half-life at 1 µM: pH 7.4; for microsomal CLint at 1 µM: pH 7.4, read-out: CLint(mic)
# Procedure: (§9) a. Preparation of phosphate buffer: The phosphate buffer powder was dissolved in 100 mL of pure water to prepare a phosphate buffer solution with a pH of 7.4 and a concentration of 100 mM, which was stored in a 4° C. refrigerator for later use.
# (§10) b. All samples as well as the reference testosterone were dissolved in DMSO to obtain a 10 mM stock solution. The 10 mM stock solution was diluted to 100 μM with acetonitrile to obtain a working solution for later use.
# (§11) c. Preparation of liver microsome working solution: Each of the mouse, rat and human liver microsome stock solutions (at concentration of 20 mg/mL) was taken and diluted to 0.56 mg/mL with 100 mM phosphate buffer solution to obtain the liver microsome working solution.
# (§12) d. Preparation of solution: An appropriate amount of MgCl2 was weighed and used to prepare a MgCl2 solution at a concentration of 60 mM using 100 mM phosphate buffer solution. An appropriate amount of NADPH was weighed and used to prepare a NADPH solution at a concentration of 20 mM using 100 mM phosphate buffer solution. An equal volume of 60 mM MgCl2 solution was added to prepare an NADPH working solution containing 10 mM NADPH and 30 mM MgCl2. An acetonitrile solution containing 20 ng/mL tolbutamide was prepared as the stop solution.
# (§13) e. Liver microsome incubation: 2 μL of each compound and the positive drug testosterone working solution were added to 178 μL of liver microsome working solution (0.56 mg/mL), mixed gently, and pre-incubated in a vibrating constant temperature water bath pot at 37° C. for 10 min. After adding 20 μL of NADPH working solution, the mixture was placed in a vibrating constant temperature water bath pot at 37° C. and timed incubation was started for 5, 10, 20, 30 and 60 min.
# (§14) f. Stopping reaction: After the corresponding time of incubation, 400 μL of stop solution was added to stop the reaction, and then the sample was immediately shaken for 1 min. The sample was centrifuged at 13500 rpm for 10 min at 10° C. After centrifugation, the supernatant was removed, diluted with water according to the needs of each compound, and analyzed by LC-MS. For the 0-minute sample, the stop solution was first added and mixed evenly with the liver microsomes, and then the NADPH working solution was added. For the negative control sample, 20 μL of 30 mM MgCl2 solution was added instead of the NADPH working solution.
# (§15) T1/2 and CLint(mic) were calculated by the following formula.
# (§16) [formula] [formula] • CLint(mic)=0.693/T1/2/liver microsomal protein concentration during incubation (mg/mL) • CLint(ver)=CLint(mic)*liver microsomal protein (mg)/liver weight (g)*liver weight to body weight ratio
# (§17) Liver microsomal protein (mg)/liver weight (g): the value is 45 in both animal and human species.
# (§18) Liver weight to body weight ratio: the parameters for mice, rats and humans are 88, 40 and 20 g/kg respectively.
# [3] = Metabolic stability in rat liver microsomes; format: in vitro ADME; details: for CLint scaled at 1 µM / half-life at 1 µM / microsomal CLint at 1 µM: rat; for CLint scaled at 1 µM / half-life at 1 µM: pH 7.4; for microsomal CLint at 1 µM: pH 7.4, read-out: CLint(mic)
# Procedure: as §9, §10, §11, §12, §13, §14, §15, §16, §17, §18
# [4] = Metabolic stability in human liver microsomes; format: in vitro ADME; details: for CLint scaled at 1 µM / half-life at 1 µM / microsomal CLint at 1 µM: human; for CLint scaled at 1 µM / half-life at 1 µM: pH 7.4; for microsomal CLint at 1 µM: pH 7.4, read-out: CLint(mic)
# Procedure: as §9, §10, §11, §12, §13, §14, §15, §16, §17, §18
# [5] = PLK1 kinase, highest concentration 1 μM, 10 points, read-out: IC50
# [6] = HCT-116, HCT116 cells, 72 h, read-out: IC50
# T1 sequence (P53350 whole entry): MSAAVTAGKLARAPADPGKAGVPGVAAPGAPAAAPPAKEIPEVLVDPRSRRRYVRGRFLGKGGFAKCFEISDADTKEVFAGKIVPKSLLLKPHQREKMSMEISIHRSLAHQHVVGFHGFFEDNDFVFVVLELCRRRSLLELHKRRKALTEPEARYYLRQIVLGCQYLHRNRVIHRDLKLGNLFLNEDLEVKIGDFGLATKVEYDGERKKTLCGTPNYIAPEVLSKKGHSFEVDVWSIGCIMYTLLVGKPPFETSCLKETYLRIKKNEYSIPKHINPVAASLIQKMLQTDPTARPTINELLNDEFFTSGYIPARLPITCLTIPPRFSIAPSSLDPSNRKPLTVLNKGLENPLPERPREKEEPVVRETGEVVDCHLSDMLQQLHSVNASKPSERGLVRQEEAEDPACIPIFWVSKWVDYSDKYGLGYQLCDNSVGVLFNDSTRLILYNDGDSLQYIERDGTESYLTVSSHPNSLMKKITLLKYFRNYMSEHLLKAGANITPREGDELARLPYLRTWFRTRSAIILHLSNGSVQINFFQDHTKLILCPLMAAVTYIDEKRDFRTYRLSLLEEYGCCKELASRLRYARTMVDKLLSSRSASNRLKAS
SMILES,IC50 (PLK1 kinase; [5]),Imax (PLK1 kinase),IC50 (HCT116 cells; [6]),efflux ratio at 120 min [1],Papp at 120 min [1],Papp A→B at 120 min [1],Papp B→A at 120 min [1],Classification Efflux transporter substrate (Caco-2 cells),also measured
CN1C2CCC1CN(c1ccc(OC(F)(F)F)c(Nc3ncc4c(n3)-c3c(c(C(N)=O)nn3CCO)CC4)c1)C2 [Compound 23],0.00366 µM,98.18%,0.214 µM,> 82.6,< 5 nm/s,< 2.8 nm/s,231 nm/s,Likely (ERa ≥ 2.00),
CN1CCN(c2ccc(OC(F)(F)F)c(Nc3ncc4c(n3)-c3c(c(C(=O)NNC(N)=O)nn3C)CC4)c2)CC1 [Compound 12],,,,> 56.7,< 5 nm/s,< 2.64 nm/s,150 nm/s,Likely (ERa ≥ 2.00),"IC50 (HCT116 cells; HCT-116, 72 h): 0.861 µM; 60 min remaining amount [2]: 26.9%; Clearance rate [2]: Medium; CLint scaled at 1 µM [2]: 9.78 L/h/kg; half-life at 1 µM [2]: 33.6 min; microsomal CLint at 1 µM [2]: 41.2 µL/min/mg; 60 min remaining amount [3]: 7.43%; Clearance rate [3]: High; CLint scaled at 1 µM [3]: 9.18 L/h/kg; half-life at 1 µM [3]: 16.3 min; microsomal CLint at 1 µM [3]: 85 µL/min/mg; 60 min remaining amount [4]: 70.8%; Clearance rate [4]: Medium; CLint scaled at 1 µM [4]: 0.624 L/h/kg; half-life at 1 µM [4]: 119 min; microsomal CLint at 1 µM [4]: 11.6 µL/min/mg"
CN1CCN(c2ccc(OC(F)(F)F)c(Nc3ncc4ccc5c(C(N)=O)nn(C)c5c4n3)c2)CC1 [Compound 3],,99.57%,,1.32,5 to 25 nm/s,6.44 nm/s,8.51 nm/s,Very unlikely or not (ERa < 2.00),"IC50 (PLK1 kinase): 0.000714 µM; IC50 (HCT116 cells; HCT-116, 72 h): 0.093 µM; 60 min remaining amount [2]: 4.32%; Clearance rate [2]: High; CLint scaled at 1 µM [2]: 24.5 L/h/kg; half-life at 1 µM [2]: 13.4 min; microsomal CLint at 1 µM [2]: 103 µL/min/mg; 60 min remaining amount [3]: 2.74%; Clearance rate [3]: High; CLint scaled at 1 µM [3]: 30.3 L/h/kg; half-life at 1 µM [3]: 4.94 min; microsomal CLint at 1 µM [3]: 281 µL/min/mg; 60 min remaining amount [4]: 7.83%; Clearance rate [4]: High; CLint scaled at 1 µM [4]: 4.72 L/h/kg; half-life at 1 µM [4]: 15.9 min; microsomal CLint at 1 µM [4]: 87.4 µL/min/mg"

# More lines, main results first:
IC50 (PLK1 kinase; [5]),Imax (PLK1 kinase),IC50 (HCT116 cells; [6]),efflux ratio at 120 min [1],Papp at 120 min [1],Papp A→B at 120 min [1],Papp B→A at 120 min [1],Classification Efflux transporter substrate (Caco-2 cells),SMILES,also measured
0.327 µM,72.68%,> 10 µM,> 25.4,< 5 nm/s,< 2.54 nm/s,64.3 nm/s,Likely (ERa ≥ 2.00),CN1CCN(c2ccc(OC(F)(F)F)c(Nc3ncc4c(n3)-c3c(c(C(=O)NS(=O)(=O)C5CC5)nn3CCO)CC4)c2)CC1 [Compound 9],
0.0018 µM,99.65%,0.205 µM,22.1,5 to 25 nm/s,11.3 nm/s,250 nm/s,Likely (ERa ≥ 2.00),CN1CCN(c2ccc(OC(F)(F)F)c(Nc3ncc4c(n3)-c3c(c(C(=O)NOCCO)nn3C)CC4)c2)CC1 [Compound 11],
0.0147 µM,95.96%,3.4 µM,> 30.3,< 5 nm/s,< 4.8 nm/s,145 nm/s,Likely (ERa ≥ 2.00),CN1CCN(c2ccc(OC(F)(F)F)c(Nc3ncc4c(n3)-c3c(c(C(=O)NS(=O)(=O)C(F)(F)F)nn3CCO)CC4)c2)CC1 [Compound 8],
0.00116 µM,99.92%,0.049 µM,> 51.7,< 5 nm/s,< 4.8 nm/s,248 nm/s,Likely (ERa ≥ 2.00),CN1CCN(c2ccc(OC(F)(F)F)c(Nc3ncc4c(n3)-c3c(c(C(=O)NO)nn3CCO)CC4)c2)CC1 [Compound 10],"IC50 (HCT116 cells; HCT-116, HCT116 cells, 72 h, read-out: half inhibitory concentration): 0.049 µM"
